Test results reported in PubChem BioAssay AID330 (DTP/NCI, 2004).
“And” between values parts separate entries of the source, which are not always exact repeats. Identical values can stand only once. Inconclusive results and toxic doses are left out.

System: P388 leukemia ip, CD2F1 mice, survival T/C
Experiment: NCI In Vivo Anticancer Drug Screen. Data for tumor model P388 Leukemia (intraperitoneal) in CD2F1 (CDF1) mice
Details: endpoint: median survival time, higher = longer survival
Procedure, shortened: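 Mice carrying the transplanted tumor received test compound or vehicle. Survival was recorded in each group, and the value is the treated-group measurement divided by that of the vehicle-treated control group.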

[1] = dose: 25.0 mg/kg/injection, schedule: Q01DX009 (ip), vehicle: saline with Tween-80
[2] = dose: 50.0 mg/kg/injection, schedule: Q01DX005 (ip), vehicle: saline with Tween-80
[3] = dose: 100.0 mg/kg/injection, schedule: Q01DX005 (ip), vehicle: saline with Tween-80
[4] = dose: 200.0 mg/kg/injection, schedule: Q01DX005 (ip), vehicle: saline with Tween-80
[5] = dose: 50.0 mg/kg/injection, schedule: Q01DX005 (ip), vehicle: Klucel (hydroxypropylcellulose) (HPC)
[6] = dose: 100.0 mg/kg/injection, schedule: Q01DX005 (ip), vehicle: Klucel (hydroxypropylcellulose) (HPC)
[7] = dose: 200.0 mg/kg/injection, schedule: Q01DX005 (ip), vehicle: Klucel (hydroxypropylcellulose) (HPC)
[8] = dose: 100.0 mg/kg/injection, schedule: Q04DX003 (ip), vehicle: saline with Tween-80
[9] = dose: 200.0 mg/kg/injection, schedule: Q04DX003 (ip), vehicle: saline with Tween-80
[10] = dose: 50.0 mg/kg/injection, schedule: Q01DX009 (ip), vehicle: Klucel (hydroxypropylcellulose) (HPC)
[11] = dose: 100.0 mg/kg/injection, schedule: Q01DX009 (ip), vehicle: Klucel (hydroxypropylcellulose) (HPC)
[12] = dose: 200.0 mg/kg/injection, schedule: Q01DX009 (ip), vehicle: Klucel (hydroxypropylcellulose) (HPC)
[13] = dose: 50.0 mg/kg/injection, schedule: Q01DX009 (ip), vehicle: saline with Tween-80
[14] = dose: 100.0 mg/kg/injection, schedule: Q01DX009 (ip), vehicle: saline with Tween-80
[15] = dose: 200.0 mg/kg/injection, schedule: Q01DX009 (ip), vehicle: saline with Tween-80
[16] = dose: 400.0 mg/kg/injection, schedule: Q04DX003 (ip), vehicle: saline with Tween-80

SMILES: CCN(CC)CCCCCCNc1cc(OC)cc2cccnc12
- T/C (dose: 12.5 mg/kg/injection, schedule: Q01DX009 (ip), vehicle: saline): 86 % of control
- T/C (dose: 25.0 mg/kg/injection, schedule: Q01DX009 (ip), vehicle: saline): 96 % of control
- T/C (dose: 50.0 mg/kg/injection, schedule: Q01DX009 (ip), vehicle: saline): 90 % of control

SMILES: Cn1c(-c2ccccc2)nc2ccccc2c1=O
- T/C (dose: 6.25 mg/kg/injection, schedule: Q01DX009 (ip), vehicle: saline with Tween-80): 95 % of control
- T/C (dose: 12.5 mg/kg/injection, schedule: Q01DX009 (ip), vehicle: saline with Tween-80): 101 % of control
- T/C [1]: 101 % of control

SMILES: O=C1OCCOCCOCCOCCOC(=O)C1c1ccccc1
- T/C (dose: 100.0 mg/kg/injection, schedule: Q04DX003 (ip), vehicle: Klucel (hydroxypropylcellulose) (HPC)): 101 % of control
- T/C (dose: 200.0 mg/kg/injection, schedule: Q04DX003 (ip), vehicle: Klucel (hydroxypropylcellulose) (HPC)): 101 % of control
- T/C (dose: 400.0 mg/kg/injection, schedule: Q04DX003 (ip), vehicle: Klucel (hydroxypropylcellulose) (HPC)): 101 % of control

SMILES: Cc1ccc(S(=O)(=O)N/N=C/c2cccc([N+](=O)[O-])c2O)cc1
- T/C [2]: 101 % of control
- T/C [3]: 104 % of control
- T/C [4]: 93 % of control

SMILES: O=C1OC(=O)C2CC3C(CC12)C1(Cl)C(Cl)=C(Cl)C3(Cl)C1(Cl)Cl (stereo unspecified)
- T/C [5]: 104 % of control
- T/C [6]: 100 % of control
- T/C [7]: 107 % of control

SMILES: CC(=O)Nc1cccc([N+](=O)[O-])c1
- T/C (dose: 50.0 mg/kg/injection, schedule: Q04DX003 (ip), vehicle: saline with Tween-80): 110 % of control
- T/C [8]: 110 % of control
- T/C [9]: 110 % of control

SMILES: Cc1cc(NC(=S)SCc2ccc3c(c2)OCO3)c([N+](=O)[O-])cc1C
- T/C (dose: 50.0 mg/kg/injection, schedule: Q01DX009 (ip), vehicle: suspension in saline): 98 % of control
- T/C (dose: 100.0 mg/kg/injection, schedule: Q01DX009 (ip), vehicle: suspension in saline): 100 % of control
- T/C (dose: 200.0 mg/kg/injection, schedule: Q01DX009 (ip), vehicle: suspension in saline): 108 % of control

SMILES: O=S1(=O)CCN(CCCc2ccccc2)CC1
- T/C [10]: 102 % of control
- T/C [11]: 105 % of control
- T/C [12]: 104 % of control

SMILES: CCOC(=O)C(N)Cc1ccc(N(CCCl)CCCl)cc1 (stereo unspecified)
- T/C (dose: 0.5 mg/kg/injection, schedule: Q04DX003 (ip), vehicle: saline): 180 % of control
- T/C (dose: 1.0 mg/kg/injection, schedule: Q04DX003 (ip), vehicle: saline): 195 % of control
- T/C (dose: 2.0 mg/kg/injection, schedule: Q04DX003 (ip), vehicle: saline): 250 % of control
- T/C (dose: 3.13 mg/kg/injection, schedule: Q01DX009 (ip), vehicle: saline): 272 % of control
- T/C (dose: 6.25 mg/kg/injection, schedule: Q01DX009 (ip), vehicle: saline): 100 % of control
- T/C (dose: 6.25 mg/kg/injection, schedule: Q04DX003 (ip), vehicle: saline): 272 % of control
- T/C (dose: 12.5 mg/kg/injection, schedule: Q04DX003 (ip), vehicle: saline): 240 % of control
- T/C (dose: 63.0 micrograms/kg/injection, schedule: Q04DX003 (ip), vehicle: saline): 113 % of control
- T/C (dose: 125.0 micrograms/kg/injection, schedule: Q04DX003 (ip), vehicle: saline): 113 % of control

SMILES: CCCNc1nc(C)nc2[nH]c(Cc3ccccc3)c(C)c12
- T/C [5]: 97 % of control
- T/C [6]: 100 % of control
- T/C [7]: 100 % of control

SMILES: CCOC(=O)c1[nH]c2ccc(OC)c3c2c1CCC3=O
- T/C [13]: 92 % of control
- T/C [14]: 92 % of control
- T/C [15]: 92 % of control

SMILES: CCC(C)(CC)OC(N)=O
- T/C [1]: 100 % of control
- T/C [13]: 91 % of control
- T/C [14]: 109 % of control
- T/C [15]: 105 % of control

SMILES: c1ccc(Cc2nnc3n2CCC(c2ccccc2)S3)cc1 (stereo unspecified)
- T/C (dose: 60.0 mg/kg/injection, schedule: Q01DX005 (ip), vehicle: saline with Tween-80): 102 % of control
- T/C (dose: 120.0 mg/kg/injection, schedule: Q01DX005 (ip), vehicle: saline with Tween-80): 99 % of control
- T/C (dose: 240.0 mg/kg/injection, schedule: Q01DX005 (ip), vehicle: saline with Tween-80): 95 % of control

SMILES: [CH3][Ge]1([CH3])[CH]=CC(O)[CH2]1 (stereo unspecified)
- T/C (dose: 50.0 mg/kg/injection, schedule: Q01DX005 (ip), vehicle: saline): 98 % of control
- T/C (dose: 100.0 mg/kg/injection, schedule: Q01DX005 (ip), vehicle: saline): 100 % of control
- T/C (dose: 200.0 mg/kg/injection, schedule: Q01DX005 (ip), vehicle: saline): 100 % of control

SMILES: CC(=O)C1=CCC2C3=CCC4=CC(O)[C@@H](O)C[C@]4(C)C3C[C@@H](O)[C@]12C (stereo partly specified)
- T/C (dose: 0.94 mg/kg/injection, schedule: Q01DX005 (ip), vehicle: saline + alcohol): 100 % of control
- T/C (dose: 1.88 mg/kg/injection, schedule: Q01DX005 (ip), vehicle: saline + alcohol): 108 % of control
- T/C (dose: 3.75 mg/kg/injection, schedule: Q01DX005 (ip), vehicle: saline + alcohol): 108 % of control
- T/C (dose: 6.25 mg/kg/injection, schedule: Q01DX005 (ip), vehicle: saline + Tween-80 + alcohol): 100 % of control
- T/C (dose: 7.5 mg/kg/injection, schedule: Q01DX005 (ip), vehicle: saline + alcohol): 104 % of control
- T/C (dose: 12.5 mg/kg/injection, schedule: Q01DX005 (ip), vehicle: saline + Tween-80 + alcohol): 112 % of control
- T/C (dose: 25.0 mg/kg/injection, schedule: Q01DX005 (ip), vehicle: saline + Tween-80 + alcohol): 109 % of control
- T/C (dose: 50.0 mg/kg/injection, schedule: Q01DX005 (ip), vehicle: saline + Tween-80 + alcohol): 118 % of control

SMILES: Cc1nn(C(=O)c2ccncc2)c(C)c1N=Nc1ccc(S(=O)(=O)N=C(N)N)cc1
- T/C [10]: 97 % of control
- T/C [11]: 95 % of control
- T/C [12]: 100 % of control

SMILES: O=C(Nc1ccc(N=Nc2ccc(S(=O)(=O)O)cc2)cc1)c1ccc(N=Nc2c(S(=O)(=O)O)cc(O)c3c(NC(=O)c4ccccc4)cc(S(=O)(=O)O)cc23)cc1
- T/C [2]: 95 % of control
- T/C [3]: 93 % of control
- T/C [4]: 95 % of control

SMILES: O=c1[nH]c2cc([N+](=O)[O-])ccc2nc1/C=C(\O)c1cccc2ccccc12
- T/C (dose: 30.0 mg/kg/injection, schedule: Q01DX005 (ip), vehicle: Klucel + Tween-80): 91 % of control
- T/C (dose: 60.0 mg/kg/injection, schedule: Q01DX005 (ip), vehicle: Klucel + Tween-80): 87 % of control and 94 % of control
- T/C (dose: 120.0 mg/kg/injection, schedule: Q01DX005 (ip), vehicle: Klucel + Tween-80): 86 % of control
- T/C (dose: 240.0 mg/kg/injection, schedule: Q01DX005 (ip), vehicle: Klucel + Tween-80): 88 % of control

SMILES: COc1cc2c(cc1OC)C1=[N+](CC2)C2=C(CC1)C(=O)CCC2
- T/C (dose: 25.0 mg/kg/injection, schedule: Q01DX005 (ip), vehicle: Klucel (hydroxypropylcellulose) (HPC)): 94 % of control
- T/C [5]: 97 % of control
- T/C [6]: 99 % of control
- T/C [7]: 93 % of control

SMILES: Oc1ccc(O)c(/C=N/N=C/c2cc(O)ccc2O)c1
- T/C [5]: 97 % of control
- T/C [6]: 97 % of control
- T/C [7]: 91 % of control

SMILES: CCSc1nc(C=O)c(Cc2ccc(Br)cc2)c(=O)[nH]1
- T/C [8]: 110 % of control
- T/C [9]: 107 % of control
- T/C [16]: 88 % of control

SMILES: CC(C)CNC(=O)c1ccccc1C(=O)NC1(C(=O)NCC(C)C)CCCC1
- T/C [2]: 87 % of control
- T/C [3]: 86 % of control
- T/C [4]: 94 % of control

SMILES: COc1ccc2c(c1)O[C@H]1c3ccc(O)cc3OC[C@@H]21
- T/C [2]: 100 % of control
- T/C [3]: 91 % of control
- T/C [4]: 91 % of control

SMILES: COc1ccc(C2SCC(=O)N2c2nncs2)c(OC)c1 (stereo unspecified)
- T/C (dose: 60.0 mg/kg/injection, schedule: Q01DX005 (ip), vehicle: Klucel (hydroxypropylcellulose) (HPC)): 99 % of control
- T/C (dose: 120.0 mg/kg/injection, schedule: Q01DX005 (ip), vehicle: Klucel (hydroxypropylcellulose) (HPC)): 106 % of control
- T/C (dose: 240.0 mg/kg/injection, schedule: Q01DX005 (ip), vehicle: Klucel (hydroxypropylcellulose) (HPC)): 110 % of control

SMILES: OCC(O)C(O)C(O)C(O)CO.[Cu+2].[Cu] (stereo unspecified)
- T/C (dose: 3.12 mg/kg/injection, schedule: Q01DX005 (ip), vehicle: Klucel (hydroxypropylcellulose) (HPC)): 88 % of control
- T/C (dose: 6.25 mg/kg/injection, schedule: Q01DX005 (ip), vehicle: Klucel (hydroxypropylcellulose) (HPC)): 92 % of control

SMILES: CC(=O)OCc1ccc(Cl)c(Cl)c1
- T/C [8]: 100 % of control
- T/C [9]: 100 % of control
- T/C [16]: 104 % of control
